In article PMC11945486, “TAS1R2/TAS1R3 Single-Nucleotide Polymorphisms Affect Sweet Taste Receptor Activation by Sweeteners: The SWEET Project” (Nutrients, 2025):
No end group written: not given here.

T1: human TAS1R2-A574T/TAS1R3-WT (Homo sapiens, UniProt Q7RTX0+Q8TE23, A574T)
T1 construct: expressed in transfected cells; host or cells: HEK293T-Gα16gust44
T1 sequence (Q8TE23 20-839 A574T): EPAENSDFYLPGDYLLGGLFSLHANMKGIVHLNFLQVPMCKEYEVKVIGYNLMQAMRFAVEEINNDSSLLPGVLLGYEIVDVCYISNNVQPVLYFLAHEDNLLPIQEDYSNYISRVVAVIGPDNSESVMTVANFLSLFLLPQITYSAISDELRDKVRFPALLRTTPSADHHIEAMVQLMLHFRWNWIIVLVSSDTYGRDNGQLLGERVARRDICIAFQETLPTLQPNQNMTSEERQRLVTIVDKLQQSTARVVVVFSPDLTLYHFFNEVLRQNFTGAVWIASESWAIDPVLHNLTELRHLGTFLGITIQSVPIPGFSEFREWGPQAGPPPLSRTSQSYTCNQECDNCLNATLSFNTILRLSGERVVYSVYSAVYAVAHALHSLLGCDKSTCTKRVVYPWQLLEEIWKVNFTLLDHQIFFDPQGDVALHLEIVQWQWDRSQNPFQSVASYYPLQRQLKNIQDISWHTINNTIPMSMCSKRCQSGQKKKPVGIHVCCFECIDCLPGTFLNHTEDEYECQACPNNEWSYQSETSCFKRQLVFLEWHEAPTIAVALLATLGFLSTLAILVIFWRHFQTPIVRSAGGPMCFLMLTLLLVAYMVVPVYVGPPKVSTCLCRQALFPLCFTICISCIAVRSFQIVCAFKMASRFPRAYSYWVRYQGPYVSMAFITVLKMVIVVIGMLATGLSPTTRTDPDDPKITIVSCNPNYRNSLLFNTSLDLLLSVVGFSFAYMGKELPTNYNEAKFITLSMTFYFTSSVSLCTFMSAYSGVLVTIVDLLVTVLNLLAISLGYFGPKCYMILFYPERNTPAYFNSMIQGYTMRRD
T1 sequence (Q7RTX0 21-852): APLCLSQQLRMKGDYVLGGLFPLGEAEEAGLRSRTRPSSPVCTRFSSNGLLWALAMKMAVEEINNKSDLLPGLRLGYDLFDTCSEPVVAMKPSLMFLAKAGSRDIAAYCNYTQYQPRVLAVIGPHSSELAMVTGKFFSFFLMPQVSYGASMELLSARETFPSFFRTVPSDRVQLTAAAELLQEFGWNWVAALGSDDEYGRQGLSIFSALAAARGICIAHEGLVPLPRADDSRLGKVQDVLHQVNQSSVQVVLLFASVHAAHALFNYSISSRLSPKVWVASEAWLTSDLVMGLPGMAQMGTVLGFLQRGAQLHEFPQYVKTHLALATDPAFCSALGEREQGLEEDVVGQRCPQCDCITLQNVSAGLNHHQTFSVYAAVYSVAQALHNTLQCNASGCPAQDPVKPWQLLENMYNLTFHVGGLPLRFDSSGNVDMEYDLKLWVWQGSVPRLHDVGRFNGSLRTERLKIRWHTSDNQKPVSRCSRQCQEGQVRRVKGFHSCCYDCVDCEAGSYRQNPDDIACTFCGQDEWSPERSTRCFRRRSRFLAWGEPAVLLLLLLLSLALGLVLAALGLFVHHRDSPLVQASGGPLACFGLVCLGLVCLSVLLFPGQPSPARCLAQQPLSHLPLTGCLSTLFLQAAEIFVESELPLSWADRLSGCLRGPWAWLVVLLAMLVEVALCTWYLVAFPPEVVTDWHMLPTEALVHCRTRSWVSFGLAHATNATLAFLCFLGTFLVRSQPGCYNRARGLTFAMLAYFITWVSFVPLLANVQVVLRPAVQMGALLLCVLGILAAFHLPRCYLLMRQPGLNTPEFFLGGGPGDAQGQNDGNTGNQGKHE

B1: thaumatin (protein)
chain: ATFEIVNRCSYTVWAAASKGDAALDAGGRQLNSGESWTINVEPGTKGGKIWARTDCYFDDSGSGICKTGDCGGLLRCKRFGRPPTTLAEFSLNQYGKDYIDISNIKGFNVPMDFSPTTRGCRGVRCAADIVGQCPAKLKAPGGGCNDACTVFQTSEYCCTTGKCGPTEYSRFFKRLCPDAFSYVLDKPTTVTCPGSSNYRVTFCPTA
modifications: Eight disulfides
notes: sweet-tasting plant protein, E957

Target: T1, human TAS1R2-A574T/TAS1R3-WT
Test: Calcium mobilisation assay, TAS1R2 variant A574T with TAS1R3-WT
Type: cell-based
Conditions: for Max ΔF/F0: maximal signal amplitude
Text: The coding sequences for TAS1R2 and TAS1R3 were commercially synthesised, and the human codon was optimised for expression in human cells. The coding sequences of human TAS1R2 and TAS1R3 were subcloned and inserted into the mammalian expression vectors pcDNA6/myc-HisA and pcDNA4/myc-HisA (Invitrogen; Thermo Fisher Scientific; Illkirch, France) between the EcoRI and NotI restriction sites, generating the plasmids pcDNA6-TAS1R2 and pcDNA4-TAS1R3, respectively. To increase protein expression in mammalian cells, an upstream start codon was used, which was a sequence called MAX, corresponding to the QBI SP163 element also described in pcDNA4-HisMax (Invitrogen; Thermo Fisher Scientific; Illkirch, France). To measure the expression level of the receptor by immunohistochemistry, we used the FLAG sequence ([…]) in the C-terminal position, which encodes the FLAG tag epitope. SNP variants of TAS1R2 and TAS1R3 were constructed based on […], respectively, using site-directed mutagenesis (Genewiz; Leipzig, Germany).
The HEK293T cells were kindly provided by Jay P. Slack (Givaudan Flavors Corporation; Cincinnati, OH, USA). HEK293T cells stably transfected with Gα16gust44 [43, 67] were seeded in poly-D-lysine-coated clear-bottom black 96-well plates (0.35 × 10^5 cells/well) in high-glucose DMEM supplemented with 2 mM GlutaMAX, 10% dialysed foetal bovine serum with penicillin/streptomycin and G418 (400 μg/mL) at 37 °C and 6.3% CO2 in a humidified atmosphere as previously reported. […] As a negative control, HEK293T cells were mock-transfected with the empty expression vector. After a further 24 h of incubation, the HEK293T cells were washed with C1 buffer (130 mM NaCl, 5 mM KCl, 10 mM HEPES pH 7.4 and 2 mM CaCl2). The 96-well plates containing the cells were then stimulated with sweet-tasting compounds. […] Different concentration ranges were tested depending on the sweet compound injected. The Ca^2+ changes were expressed as fractional changes in fluorescent light intensity: ΔF/F = (F − F0)/F0, where F was the fluorescent light intensity at each point, and F0 was the value of emitted fluorescent light prior to stimulus application. To calculate dose–response relationships, the changes in fluorescence upon stimulus application were averaged, mock-subtracted and baseline-corrected. The dose–response data obtained were adjusted using a 4-parameter logistic equation. The half-maximal effective concentrations (EC50 values) and maximal signal amplitudes were calculated using SigmaPlot software (version 15.0) (Systat Software; San Jose, CA, USA).
For in vitro calcium mobilisation assay performed on hTAS1R2-SNPs, hTAS1R3-SNPs and mTAS1R3-I60T, 6 to 7 concentrations were tested for each sweet compound, plus buffer alone. All concentration–receptor combinations were measured in duplicate, and each experiment was repeated at least 4 times (8 wells/concentration). Results were expressed for each concentration as ΔF/F mean ± SEM and represented as dose–response curves.

| Molecule | EC50 [µM] | R1 = Variant EC50/WT EC50 | Max ΔF/F0 |
| --- | --- | --- | --- |
| CC1=CC(=O)NS(=O)(=O)O1 [Acesulfame K, acesulfame K] | 658 ± 65 | 0.9 | 0.34 ± 0.02 |
| O=S(=O)(O)NC1CCCCC1 [Cyclamate, cyclamate] | 1780 ± 49 |  |  |
| C[C@H](CC[C@@H](O[C@@H]1O[C@H](CO[C@@H]2O[C@H](CO)[C@@H](O)[C@H](O)[C@H]2O)[C@@H](O)[C@H](O)[C@H]1O[C@@H]1O[C@H](CO)[C@@H](O)[C@H](O)[C@H]1O)C(C)(C)O)[C@H]1CC[C@@]2(C)[C@@H]3CC=C4[C@@H](CC[C@H](O[C@@H]5O[C@H](CO[C@@H]6O[C@H](CO)[C@@H](O)[C@H](O)[C@H]6O)[C@@H](O)[C@H](O)[C@H]5O)C4(C)C)[C@]3(C)[C@H](O)C[C@]12C [Mogroside V, mogroside V] | 16.7 ± 3.1 | 1.0 | 1.25 ± 0.08 |
| COc1ccc(CCC(=O)c2c(O)cc(O[C@@H]3O[C@H](CO)[C@@H](O)[C@H](O)[C@H]3O[C@@H]3O[C@@H](C)[C@H](O)[C@@H](O)[C@H]3O)cc2O)cc1O [NHDC, neohesperidin dihydrochalcone] | 73.4 ± 8.4 | 1.0 | 0.81 ± 0.03 |
| COC(=O)[C@H](Cc1ccccc1)NC(=O)[C@H](CC(=O)O)NCCC(C)(C)C [Neotame] | 0.73 ± 0.03 | 0.9 | 0.60 ± 0.01 |
| C=C(C)[C@@H]1CC=C(/C=N/O)CC1 [Perillartine, perillartine] | 19.2 ± 0.9 | 1.1 | 1.39 ± 0.02 |
| C=C1C[C@@]23CC[C@H]4[C@@](C)(CCC[C@@]4(C)C(=O)O[C@@H]4O[C@H](CO)[C@@H](O)[C@H](O[C@@H]5O[C@H](CO)[C@@H](O)[C@H](O)[C@H]5O)[C@H]4O[C@@H]4O[C@H](CO)[C@@H](O)[C@H](O)[C@H]4O)[C@@H]2CC[C@]1(O[C@@H]1O[C@H](CO)[C@@H](O)[C@H](O[C@@H]2O[C@H](CO)[C@@H](O)[C@H](O)[C@H]2O)[C@H]1O[C@@H]1O[C@H](CO)[C@@H](O)[C@H](O)[C@H]1O)C3 [Rebaudioside M, rebaudioside M] | 16.3 ± 0.5 | 1.0 | 1.08 ± 0.01 |
| OC[C@H]1O[C@H](O[C@]2(CCl)O[C@H](CCl)[C@@H](O)[C@@H]2O)[C@H](O)[C@@H](O)[C@H]1Cl [Sucralose] | 81 ± 2 | 0.9 | 0.63 ± 0.01 |
| brazzein (QDKCKKVYENYPVSKCQLANQCNYDCKLDKHARSGECFYDEKRNLQCICDYCEY; ends and bridges not checked; cysteine pairing not given here; UniProt P56552 1-54, looked up) [sweet-tasting protein obtained by recombinant production using the yeast Pichia pastoris] |  | 1.2 | 1.14 ± 0.01 |
| thaumatin |  | 1.9 | 1.37 ± 0.02 |
| B1 | 14.1 ± 0.3 |  |  |
